Earlier results in patent US10154980B2, “Anti-inflammatory omega-3 synergistic combinations” (LYCORED LTD., priority 2013, dated 2018).

Test system: NO production
Conditions: background, literature references

Row | SMILES | inhibit NO production
1 | CC1=C[C@H](O)CC(C)(C)[C@H]1/C=C/C(C)=C/C=C/C(C)=C/C=C/C=C(C)/C=C/C=C(C)/C=C/C1=C(C)C[C@@H](O)CC1(C)C [lutein, (3R,3′R, 6′R)-beta,epsilon-carotene-3,3′-diol] | shown to inhibit NO production
2 | CC(C)=CCC/C(C)=C/C=C/C(C)=C/C=C/C(C)=C/C=C/C=C(C)/C=C/C=C(C)/C=C/C=C(\C)CCC=C(C)C [lycopene] | shown to inhibit NO production
